Laboratory results as given in patent US11236108B2, “Functionalized heterocycles as antiviral agents” (ENANTA PHARMACEUTICALS, INC., priority 2019, dated 2022).

What was measured:
hepatitis B virus (HBV) = assay: Reduction of viral product accumulation (HBV DNA qPCR, HBsAg or HBeAg ELISA) in 2.2.15 cells; format: cell-based; conditions: 120 h, day 5 post treatment, 50% reduction of viral product accumulation in cell lysates or supernatants relative to no drug controls, readout not specified
Experimental: 2.2.15 cells are passaged upon attaining confluency in DMEM/F12 media in the presence of 10% FBS, Penn/Strep, and 250 ug/mL G418. Novel compounds are 5 fold serially diluted in DMSO and added to 96 well plates containing 35,000 cells/well at a 1:200 dilution so that the final concentration of DMSO is 0.5%. On day 5, post treatment cell lysates and supernatants are harvested for analysis.
Cells are lysed using Agilent Sidestep Lysis buffer, diluted 1:100 and quantified via quantitative real time PCR. Commercially available ELISA kits are used to quantitate the viral proteins HBsAg (Alpco) or HBeAg (US Biological) by following the manufacturer's recommended protocol after diluting samples to match the linear range of their respective assays. Irrespective of readout, compound concentrations that reduce viral product accumulation in the cell lysates or supernatants by 50% relative to no drug controls (EC50) are reported; EC50 ranges are as follows: A<0.1 μM; B 0.1-1 μM; C>1 μM.

[1] = Compound induced cellular toxicity in HepG2 cells (ATPlite 1 Step); format: cell-based; conditions: human, three days exposure, 50% reduction of total ATP levels relative to no drug controls
Experimental: At day 3, post seeding cells are treated with ATPlite 1 Step according to the manufacturer's instructions.

| SMILES | EC50 (hepatitis B virus (HBV)) | CC50 at 3 days [1] |
| --- | --- | --- |
| CC(C)(C)[C@@H]1Oc2c(cc(Br)c3occc23)-c2c1cc(C(=O)O)c(=O)n2C1CC1 [Example 1, (S)-11-bromo-5-(tert-butyl)-9-cyclopropyl-8-oxo-8,9-dihydro-5H-furo[2′,3′:7,8]chromeno[4,3-b]pyridine-7-carboxylic acid] | < 100 nM | > 25 µM |
| CC(C)(C)[C@@H]1Oc2c(cc(Cl)c3occc23)-c2c1cc(C(=O)O)c(=O)n2C1CC1 [Example 2, (S)-5-(tert-butyl)-11-chloro-9-cyclopropyl-8-oxo-8,9-dihydro-5H-furo[2′,3′:7,8]chromeno[4,3-b]pyridine-7-carboxylic acid] | < 100 nM | > 25 µM |
| CC(C)(C)[C@@H]1Oc2c(cc(Cl)c3ccoc23)-c2c1cc(C(=O)O)c(=O)n2C1CC1 [Example 3, (S)-5-(tert-butyl)-11-chloro-9-cyclopropyl-8-oxo-8,9-dihydro-5H-furo[3′,2′:7,8]chromeno[4,3-b]pyridine-7-carboxylic acid] | < 100 nM | > 25 µM |
| CC(C)(C)[C@@H]1Oc2c(ccc3occc23)-c2c1cc(C(=O)O)c(=O)n2C1CC1 [Example 4, (S)-5-(tert-butyl)-9-cyclopropyl-8-oxo-8,9-dihydro-5H-furo[2′,3′:7,8]chromeno[4,3-b]pyridine-7-carboxylic acid] | < 100 nM | > 25 µM |
| CC(C)(C)[C@@H]1Oc2c(cc(O)c3occc23)-c2c1cc(C(=O)O)c(=O)n2C1CC1 [Example 5, (S)-5-(tert-butyl)-9-cyclopropyl-11-hydroxy-8-oxo-8,9-dihydro-5H-furo[2′,3′:7,8]chromeno[4,3-b]pyridine-7-carboxylic acid] | < 100 nM | > 25 µM |
| COc1cc2c(c3ccoc13)O[C@@H](C(C)(C)C)c1cc(C(=O)O)c(=O)n(C3CC3)c1-2 [Example 6, (S)-5-(tert-butyl)-9-cyclopropyl-11-methoxy-8-oxo-8,9-dihydro-5H-furo[2′,3′:7,8]chromeno[4,3-b]pyridine-7-carboxylic acid] | < 100 nM | > 25 µM |
